{"source": "patent US6136323A", "about": "“Bacterial plasmin receptors as fibrinolytic agents” (University of Florida Research Foundation, Inc., priority 1994, dated 2000)", "molecules": {"B1": {"name": "plasmin: Human plasmin generated from radiolabeled plasminogen by incubation with urokinase (protein, UniProt P00747 20-580; P00747 581-810, looked up)", "Plasmin heavy chain A": "EPLDDYVNTQGASLFSVTKKQLGAGSIEECAAKCEEDEEFTCRAFQYHSKEQQCVIMAENRKSSIIIRMRDVVLFEKKVYLSECKTGNGKNYRGTMSKTKNGITCQKWSSTSPHRPRFSPATHPSEGLEENYCRNPDNDPQGPWCYTTDPEKRYDYCDILECEEECMHCSGENYDGKISKTMSGLECQAWDSQSPHAHGYIPSKFPNKNLKKNYCRNPDRELRPWCFTTDPNKRWELCDIPRCTTPPPSSGPTYQCLKGTGENYRGNVAVTVSGHTCQHWSAQTPHTHNRTPENFPCKNLDENYCRNPDGKRAPWCHTTNSQVRWEYCKIPSCDSSPVSTEQLAPTAPPELTPVVQDCYHGDGQSYRGTSSTTTTGKKCQSWSSMTPHRHQKTPENYPNAGLTMNYCRNPDADKGPWCFTTDPSVRWEYCNLKKCSGTEASVVAPPPVVLLPDVETPSEEDCMFGNGKGYRGKRATTVTGTPCQDWAAQEPHRHSIFTPETNPRAGLEKNYCRNPDGDVGGPWCYTTNPRKLYDYCDVPQCAAPSFDCGKPQVEPKKCPGR", "Plasmin light chain B": "VVGGCVAHPHSWPWQVSLRTRFGMHFCGGTLISPEWVLTAAHCLEKSPRPSSYKVILGAHQEVNLEPHVQEIEVSRLFLEPTRKDIALLKLSSPAVITDKVIPACLPSPNYVVADRTECFITGWGETQGTFGAGLLKEAQLPVIENKVCNRYEFLNGRVQSTELCAGHLAGGTDSCQGDSGGPLVCFEKDKYILQGVTSWGLGCARPNKPGVYVRVSRFVTWIEGVMRNN", "modifications": "Plasmin radiolabeled", "notes": "Human plasmin generated from radiolabeled plasminogen by incubation with urokinase"}, "B2": {"name": "plasmin receptor: Mr ≈41,000 dalton plasmin binding protein extracted with mutanolysin from group A streptococcal strain 64/14 (protein)", "chain": "MVVKVGINGFGRIGRLAFRRIQNIEGVEVTRINDLTDPNMLAHLLKYDTTQGRFDGTVEVKEGGFEVNGNFIKVSAERDPENIDWATDGVEIVLEATGFFAKKEAAEKHLHANGAKKVVITAPGGNDVKTVVFNTNHDILDGTETVISGASCTTNCLAPMAKALHDAFGIQKGLMTTIHAYTGDQMILDGPHRGGDLRRARAGAANIVPNSTGAAKAIGLVIPELNGKLDGAAQRVPVPTGSVTELVVTLDKNVSVDEINSAMKAASNDSFGYTEDPIVSSDIVGVSYGSLFDATQTKVMEVDGSQLVKVVSWYDNEMSYTAQLVRTLEYFAKIAK"}}, "key": {"[1]": {"target": "binding of plasmin to the group A streptococcus 64/14", "experiment": "Inhibition of plasmin binding to bacteria by amino acids", "conditions": "pH 7.0, 37 C, 15 min, strain 64/14; read-out: concentration giving fifty percent inhibition of binding of plasmin to the bacteria", "description": "Labeled plasmin (100 μl containing approximately 2×10^4 cpm) was added to 200 μl VBS-gel containing varying concentrations of epsilon-aminocaproic acid (EACA), lysine, or arginine, and incubated at 37 C for 15 min. The pH of each solution was 7.0. One hundred μl of VBS-gel containing 10^7 bacteria (strain 64/14) were then added and the mixture was incubated at 37 C for 15 min. The bacterial suspensions were centrifuged at 1000 g for 7 min and washed twice with 2 ml of VBS-gel containing the same concentration of amino acid present during the incubation period. The percent inhibition of binding was calculated for duplicate experiments by comparison with binding in VBS-gel alone."}, "[2]": {"system": "plasmin prebound to the group A streptococcus", "experiment": "Dissociation of prebound plasmin from bacteria by amino acids", "conditions": "compared with concentration inhibiting binding by 50%", "description": "The ability of EACA, lysine, or arginine to dissociate bound plasmin from the bacteria was examined in the following manner. Labeled plasmin was incubated with 10^7 bacteria in VBS-gel containing no amino acid at 37 C for 15 min. The bacteria were pelleted by centrifugation and washed twice with 2 ml on VBS-gel. After determining the radioactivity associated with the bacteria, the pellets were resuspended in solutions of VBS-gel containing varying concentrations of amino acid (pH 7.0) as described above. The mixtures were incubated at 37 C for 15 min and washed twice with VBS-gel containing the appropriate amino acid concentration. The radioactivity associated with the bacteria in duplicate experiments was again measured and the percentage dissociated was calculated."}, "[3]": {"system": "Mr 48,000 plasminogen activator protein from strain 64/14", "experiment": "Western blot probed with 125I-human plasmin in presence or absence of EACA", "format": "binding, group A streptococcus", "conditions": "addition of EACA (1.0 mM)", "description": "(§1) Gels intended for Western blotting were equilibrated in 25 mM Tris, 0.2 M glycine pH 8.0 containing 20% v/v methanol (electroblot buffer) for 25 minutes. Protein blotting, from SDS-PAGE gels, was performed using the `Trans-Blot SD Semi-Dry` electrophoretic transfer cell (Bio Rad, Richmond, Calif.). Blots were blocked as described for the dot-blot procedure, and probed for 3-4 hours at room temperature with radiolabeled human plasmin in either the presence or absence of 1.0 mM EACA, to identify functionally active protein bands. In studies of antigenic properties of these proteins, blots were probed with rabbit anti-plasmin receptor antibody or anti-group C streptokinase antibody by incubation with […] IgG per ml of probing solution (approximately a 1:3000 dilution of antisera) for three hours and probed with ^125 I-streptococcal protein G containing 3×10^4 cpm/ml. For probing with mouse monoclonal antibodies specific for epitopes on group C streptokinase, blots were probed with a 1:100 dilution of the monoclonal antibody stock solution for three hours, followed by probing with goat antibody specific for mouse IgG at 1.0 μg/ml, followed by probing with ^125 I-streptococcal protein G containing 3×10^4 cpm/ml. Blots were then washed with 0.01 M EDTA pH 7.3, containing 1.0 M NaCl, 0.25% gelatin, 0.15% Tween 20. […]"}, "[4]": {"system": "Mr ≈41,000 dalton plasmin binding protein of strain 64/14", "experiment": "Western blot probed with 125I-human plasmin in presence or absence of EACA", "design": "species or system group A streptococcus", "conditions": "1.0 mM EACA", "description": "as §1"}, "[5]": {"system": "group C streptokinase", "experiment": "Western blot probed with 125I-human plasmin in presence or absence of EACA", "format": "binding, group C streptococci", "conditions": "addition of EACA (1.0 mM)", "description": "as §1"}, "[6]": {"system": "plasmin bound to strain 64/14", "experiment": "Preparative elution of bound labeled plasmin from strain 64/14 with lysine", "format": "binding, group A streptococcus", "conditions": "20 mM lysine in VBS-gel, room temperature, 30 min", "description": "Plasmin which had been bound to and eluted from strain 64/14 by treatment with lysine was also examined in similar binding studies. Eluted plasmin was obtained by incubating 2 ml of stock 10% wet weight/volume bacterial suspension (strain 64/14) with approximately 20 μg of labeled plasmin at room temperature for 45 min. This suspension was centrifuged at 1000 g for 10 min and washed once with 10 ml of VBS-gel, and the radioactivity associated with the bacterial pellet was measured. The pellet was then resuspended in VBS-gel containing 20 mM lysine and incubated at room temperature for 30 min. The suspension was centrifuged and the supernatant recovered. Approximately 90% of the radioactivity originally associated with the bacterial pellet was dissociated by the lysine treatment. The dissociated plasmin in the supernatant was the subjected to gel filtration of a G-25 column to separate lysine from plasmin. Fractions containing plasmin were collected and stored at -20 C."}, "[7]": {"system": "group A streptococcus 64/14", "experiment": "Effect of pH and ionic strength on binding of labeled plasmin(ogen) to bacteria", "description": "To assess the effect of pH on the bacterium: plasmin (ogen) interaction, 50 μl of labeled plasminogen of plasmin (approximately 2×10^4 cpm) were added to 1.0 ml of VBS containing 0.05% Tween-20 adjusted to the appropriate pH. After 15 min at room temperature, 50 μl of VBS containing approximately 10^7 bacteria (strain 64/14) were added and the mixture was incubated at 37 C for 15 min. The bacterial suspensions were centrifuged at 1000 g for 7 min to separate bacteria from unbound labeled proteins and the pellets were washed twice with 2 ml of VBS at the appropriate pH. The radioactivity associated with the bacterial pellet in duplicate experiments was measured using a Beckman 5500 autogamma counter.\nTo assess the effect of ionic strength on the bacterium:plasmin (ogen) interaction, similar studies were carried out in solutions containing different concentrations of NaCl with 0.05% Tween-20. The bacterial pellets were washed in the appropriate NaCl concentration to remove unbound labeled proteins."}, "[8]": {"system": "group A streptococci strain 64/14", "experiment": "Effect of Ca2+ and Mg2+ on binding of radiolabeled plasmin to bacteria", "design": "species or system group A streptococcus", "conditions": "VBS-gel with 0.00015 M Ca2+ and 0.001 M Mg2+ vs metal free VBS-gel with 0.15 M EDTA", "description": "Bindings of radiolabeled plasmin to group A streptococci strain 64/14 was studied in the following buffers: (1) VBS-gel containing 0.00015 M Ca^2+ and 0.001 M Mg^2+, or (2) metal free VBS-gel containing 0.15 M ethylenediaminetetraacetic acid (EDTA). In each case 400 μl of buffer was added to 100 μl of VBS-gel containing approximately 10^7 bacteria and 100 μl of VBS-gel containing 3×10^4 cpm of radiolabeled plasmin. After incubation at 37 C for 15 minutes, the mixtures were centrifuged at 1000 g for 7 min to separate bacteria from unbound radiolabel, the pellets were washed twice with 2 ml of the appropriate buffer, and radioactivity associated with the bacterial pellet in duplicate experiments was measured."}, "[9]": {"target": "T1, human plasmin (Homo sapiens, UniProt P00747)", "T1 construct": "from tissue", "experiment": "Western blot probed with 125I-labeled human plasmin (plasmin binding activity)", "conditions": "SDS-PAGE", "description": "PAGE and protein blotting. SDS-polyacrylamide gel electrophoresis (PAGE) was carried out with a 10% (wt/vol) polyacrylamide separating gel and a 4% (wt/vol) polyacrylamide stacking gel according to the method of Laemmli (Laemmli, U.K. [1970] Nature 227:680-685). Gels for Western blotting (immunoblotting) were equilibrated, and separated proteins were transferred by methods described previously (Broder et al. [1991], supra). For studies of plasmin binding, nitrocellulose membranes were blocked for 1 hour at room temperature in NET-gel buffer. The blots were then incubated for 2 hours at room temperature with ^125 I-human plasmin to identify plasmin-binding protein bands (Broder et al., supra). The blots were washed in NET-gel and subjected to autoradiography at -70 C.\nGels intended for Western blotting were equilibrated in 25 mM Tris, 0.2 M glycine pH 8.0 containing 20% v/v methanol (electroblot buffer) for 25 minutes. Protein blotting, from SDS-PAGE gels, was performed using the `Trans-Blot SD Semi-Dry` electrophoretic transfer cell (Bio Rad, Richmond, Calif.). Blots were blocked as described for the dot-blot procedure, and probed for 3-4 hours at room temperature with radiolabeled human plasmin in either the presence or absence of 1.0 mM EACA, to identify functionally active protein bands. […]"}, "[10]": {"target": "plasminogen (Homo sapiens, UniProt P00747)", "sequence (P00747 20-810 limits assumed)": "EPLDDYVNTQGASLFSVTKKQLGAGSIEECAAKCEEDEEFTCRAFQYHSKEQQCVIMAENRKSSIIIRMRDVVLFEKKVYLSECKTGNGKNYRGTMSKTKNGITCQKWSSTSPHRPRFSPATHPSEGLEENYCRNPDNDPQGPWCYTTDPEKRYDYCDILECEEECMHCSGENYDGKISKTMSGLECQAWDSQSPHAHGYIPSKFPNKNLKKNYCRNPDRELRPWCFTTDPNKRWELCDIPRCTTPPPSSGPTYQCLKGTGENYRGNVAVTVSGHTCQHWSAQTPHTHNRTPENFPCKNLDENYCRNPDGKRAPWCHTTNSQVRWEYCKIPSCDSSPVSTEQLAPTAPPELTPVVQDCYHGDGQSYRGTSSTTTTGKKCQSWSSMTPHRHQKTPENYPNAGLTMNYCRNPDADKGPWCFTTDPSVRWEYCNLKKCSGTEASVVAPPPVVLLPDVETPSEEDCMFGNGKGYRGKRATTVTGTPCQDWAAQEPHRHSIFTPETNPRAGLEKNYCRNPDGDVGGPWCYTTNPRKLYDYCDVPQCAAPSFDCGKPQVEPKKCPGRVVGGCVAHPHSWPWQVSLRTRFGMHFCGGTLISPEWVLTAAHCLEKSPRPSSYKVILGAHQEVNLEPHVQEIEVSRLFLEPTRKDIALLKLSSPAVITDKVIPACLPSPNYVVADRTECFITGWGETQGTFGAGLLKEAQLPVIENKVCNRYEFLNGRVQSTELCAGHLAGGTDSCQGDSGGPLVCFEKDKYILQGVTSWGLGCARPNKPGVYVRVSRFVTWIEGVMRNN", "experiment": "Plasminogen activator activity of separated proteins", "format": "biochemical"}}}
{"molecule": "NCCCCCC(=O)O", "note": "[EACA, epsilon-aminocaproic acid]", "values": [{"measurement": "IC50", "setting": "[1]", "value": 150, "unit": "µM"}, {"measurement": "concentration of amino acid required to elute 50% of the bound plasmin", "setting": "[2]", "value": "approximately equivalent"}, {"measurement": "effect on binding of plasmin to the Mr 48,000 plasminogen activator protein from strain 64/14", "setting": "[3]", "value": "no effect"}, {"measurement": "effect on binding of 125I-labeled human plasmin to the Mr ≈41,000 dalton protein in concentrated culture supernatant of strain 64/14", "setting": "[4]", "value": "inhibited"}, {"measurement": "effect on plasmin binding activity of Mr ≈41,000 dalton band in the mutanolysin extract of strain 64/14", "setting": "[4]", "value": "reduced significantly"}, {"measurement": "effect on binding of plasmin to the reference group C streptokinase molecule", "setting": "[5]", "value": "no effect"}]}
{"molecule": "N=C(N)NCCC[C@H](N)C(=O)O", "note": "[arginine]", "values": [{"measurement": "IC50", "setting": "[1]", "value": 25000, "unit": "µM"}, {"measurement": "concentration of amino acid required to elute 50% of the bound plasmin", "setting": "[2]", "value": "approximately equivalent"}]}
{"molecule": "NCCCC[C@H](N)C(=O)O", "note": "[lysine]", "values": [{"measurement": "IC50", "setting": "[1]", "value": 2000, "unit": "µM"}, {"measurement": "radioactivity originally associated with the bacterial pellet dissociated", "setting": "[6]", "value": "Approximately 90%"}, {"measurement": "concentration of amino acid required to elute 50% of the bound plasmin", "setting": "[2]", "value": "approximately equivalent"}]}
{"molecule": "plasminogen", "values": [{"measurement": "fraction bound to bacteria", "setting": "[7]; 0.1 to 0.4 M NaCl", "value": "less than 10%"}, {"measurement": "direct binding of offered counts to the bacteria", "setting": "[7]; entire pH range tested (pH 5-9)", "value": "less than 10%"}, {"measurement": "binding to the bacteria at low ionic strength", "setting": "[7]; ionic strength below 0.075 M NaCl", "value": "significant binding"}]}
{"molecule": "B1", "values": [{"measurement": "amount bound by the bacteria, effect of divalent cations", "setting": "[8]", "value": "the same in the presence or absence of divalent cations"}, {"measurement": "counts offered being bound by the group A streptococcus 64/14", "setting": "[7]; maximal binding, between pH 5 and 8, about 10^7 bacteria, 37 C, 15 min", "value": "approximately 60%"}]}
{"molecule": "B2", "values": [{"measurement": "binding of 125I-labeled human plasmin on blot", "setting": "[9]", "value": "capable of binding to human plasmin"}, {"measurement": "binding of 125I-labeled human plasmin on blot", "setting": "[9]; listed as Mr ≈41,000 dalton protein", "value": "retained fractional plasmin binding activity"}, {"measurement": "plasminogen activating potential", "setting": "[10]; affinity purified protein", "value": "lacked any plasminogen activating potential"}, {"measurement": "plasminogen activator activity", "setting": "[10]; extracted (mutanolysin) preparation from strain 64/14", "value": "no plasminogen activator activity"}]}
